Test results as given in patent US20220030866A1, “CONJUGATES OF AUXIN ANALOGS” (The State of Israel, Ministry of Agriculture & Rural …, priority 2019, published 2022).

Columns and labels:
Type in all cases: in vivo
mung bean cuttings = experiment: rooting of mung bean cuttings (number of adventitious roots per cutting); conditions: for effect on AR formation in mung bean cuttings, in words: tested at 2, 10 or 50 μM
Outline: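 Readout was the number of adventitious roots per cutting in mung bean cuttings. Conjugates of 4-CPA, MCPA and 2-DP were tested alongside unconjugated IBA and 2-DP–glycine methyl ester.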

Arabidopsis seedlings [1] = experiment: adventitious root formation in intact etiolated Arabidopsis seedlings; conditions: intact etiolated seedlings; 50 nM, FIG. 17 legend 10 μM for one hour
Experimental: Adventitious roots (ARs) were induced in intact plants, using previously described procedures [Gutierrez et al., Plant Cell 2009, 21:3119-3132; Abu-Abied et al., Plant J 2012, 71:787-799; Rasmussen et al., Plant Physiol 2012, 158:1976-1987]. Briefly, seeds were germinated on MS/0.8% agar plates supplemented with 3% sucrose. The plates were kept in the dark for 2 days at 4° C., then 5 days at 22° C. in the dark, 2 days in the light, 3 days in the dark and then additional 4 days in the light to complete 2 weeks when roots were counted using a stereoscope. Sensitivity to auxin and/or auxin analogs was determined by following root elongation on vertical plates. The 4-day-old seedlings were transferred to MS plates containing 0.05 or 0.5 μM IAA and the root length was measured after 5 days, including the number of LRs in each root and calculation of the LR density. Each treatment experiment included 10-15 plants and was repeated 3 times.
In a third assay utilizing an Arabidopsis model, induction of adventitious root AR formation in intact plants was examined in the presence of 50 nM of tested compounds, which included 5 days incubation in the dark, followed by a shift to the light, according to procedures described by Sorin et al. [Plant Cell 2005, 17:1343-1359].
Conjugates prepared as described herein were evaluated in an Arabidopsis rooting model, according to procedures such as described hereinabove. Seeds were germinated and kept in the dark for 4 days. The etiolated seedlings were then incubated for 1 hour in 10 μM of each compound and then transferred to vertical MS medium-containing plates.

DR5:venus marker = experiment: auxin activity by DR5:venus fluorescence in Arabidopsis plants; conditions: 10 μM
Outline: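 Arabidopsis seedlings expressing nuclear DR5:venus, grown four days on MS medium, then transferred to plates with 10 μM compound for 24 h. Nuclear fluorescence imaged by confocal microscopy and averaged per segmented nucleus as auxin-activity readout; MS medium served as negative control.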

Arabidopsis seedlings [2] = experiment: split petri dish assay, separate shoot or root application in etiolated Arabidopsis seedlings; conditions: 10 μM; for adventitious root formation, exposure of shoots compared to exposure of roots / lateral root formation, shoot application compared with root application: split dish
Text: The observation that AR enhancement in Eucalyptus cuttings was higher when 4-CPA conjugates were applied also to the leaves (as described in Example 3) prompted further investigation into the functions of shoot-derived 4-CPA. To this end, 4-CPA or Compounds 1p and it were applied specifically to roots or shoots of five-day old etiolated Arabidopsis seedlings using a split petri dish (as depicted in FIG. 26) and the effect on root elongation, lateral root (LR) formation and adventitious root (AR) formation was evaluated.
Arabidopsis plants were germinated and grown in the dark for 5 days, then then transferred to petri dishes with a partition in the middle. Each half of these plates contained either medium alone or with 10 μM of 4-CPA or Compound 1p or 1tl. The etiolated seedlings were put on the plates with their collet region on the partition such that either the hypocotyl and cotyledons, or the root or both were in touch with the medium containing the tested compound. Adventitious roots and lateral roots were counted and the length of the primary root was measured after a week.

Arabidopsis seedlings [3] = experiment: root elongation inhibition in Arabidopsis seedlings; conditions: for effect on root elongation relative to control, in words: after 5 days
[4] = tested on: cuttings from mature Eucalyptus grandis trees; experiment: rooting of cuttings from mature Eucalyptus grandis trees; conditions: 100 μM compound by submerging or spraying, with 6000 ppm IBA
[5] = tested on: Eucalyptus x trabutii cuttings; experiment: rooting of Eucalyptus x trabutii cuttings; conditions: for mean root number per cutting, E. x trabutii: K-IBA alone or with 100 μM compound; for callus formation in E. x trabutii / mean root number and mean root length, E. x trabutii, relative to IBA alone, in words / rooting rate of E. x trabutii compared with IBA alone, in words: K-IBA with 100 μM compound
Experimental: In order to investigate cloning of productive eucalyptus trees from cuttings, branches were excised from mature Eucalyptus x trabutii and Eucalyptus brachyphylla trees the field (in Kfar Pines, Israel)—selected based on their exceptional nectar production and honeybee attraction—placed in a humidified cooler box and brought to a climate-controlled greenhouse within 2 hours. Each cutting, 7 cm long, included three nodes with only two leaves remaining at its apical end. Two-thirds of each blade was excised to minimize evapotranspiration. The cutting bases were submerged for 1 minute in 6 grams/liter indole-3-butyric acid potassium salt (K-IBA), optionally supplemented with Compound 1s or 1t at a concentration of 100 μM. In addition, the leaves were sprayed with 100 μM of each compound in the presence of 0.05% Triton X-100 surfactant. Stock solutions of Compounds 1s and 1t were at a concentration of 100 mM in DMSO. The cuttings were planted in rooting medium containing peat, vermiculite and polystyrene flakes at a ratio of 1:2:3 respectively, on a heated rooting table under 90% humidity. Fungicides were applied to the rooting media on a weekly basis. Rooting percentage, number of roots per cutting and root length were measured after 1 and 2 weeks and after 1 and 2 months.

[6] = 4 day old seedlings, 5 days on vertical plates

| SMILES | effect on AR formation in mung bean cuttings, in words (mung bean cuttings) | adventitious roots formed on average (Arabidopsis seedlings [1]) | DR5 fluorescence (auxin activity), in words (DR5:venus marker) | effect on root tip and root elongation zone (DR5:venus marker) | effect on root growth of application to the shoot compared with application directly to the root (Arabidopsis seedlings [2]; 24 hours on split dish) | adventitious root formation, exposure of shoots compared to exposure of roots (Arabidopsis seedlings [2]) | lateral root formation, shoot application compared with root application (Arabidopsis seedlings [2]) | effect on root elongation relative to control, in words (Arabidopsis seedlings [3]; 50 nM) | time course of root elongation inhibition (Arabidopsis seedlings [3]; 50 nM, slight inhibition until day 3, complete from day 4) | rooting in combination with IBA compared with IBA alone, in words [4] | mean root number per cutting, E. x trabutii [5] | callus formation in E. x trabutii [5] | mean root number and mean root length, E. x trabutii, relative to IBA alone, in words [5] | rooting rate of E. x trabutii compared with IBA alone, in words [5] | appearance of the base of mung bean cuttings (mung bean cuttings; FIGS. 4A, 4B) | potency in promoting DR5 fluorescence relative to Compound 1t (DR5:venus marker; fluorescent intensity) | concentration that inhibited root elongation significantly (Arabidopsis seedlings [3]; [6]) [nM] | concentration that inhibited root elongation totally (Arabidopsis seedlings [3]; [6]) [nM] |
| --- | --- | --- | --- | --- | --- | --- | --- | --- | --- | --- | --- | --- | --- | --- | --- | --- | --- | --- |
| COC(=O)[C@H](Cc1c[nH]c2ccccc12)NC(=O)COc1ccc(Cl)cc1 [Compound 1t, 4-CPA-L-Trp] | induced rooting only at low concentrations | 4.7±0.9 | the most potent conjugate | loss of auxin activity at the root tip, and swelling of the root elongation zone | comparable | significantly more adventitious root formation | inhibited lateral root formation more efficiently than application to roots | inhibited root elongation relative to control | biphasic behavior | at least as potent as that of their corresponding D-amino acid conjugates | about 5 | no calluses were observed | no apparent effect | considerably higher |  |  |  |  |
| COC(=O)[C@@H](Cc1c[nH]c2ccccc12)NC(=O)COc1ccc(Cl)cc1 [Compound 1s, 4-CPA-D-Trp] | induced rooting to a degree positively correlated with concentration | 0.5±0.3 | significantly lower fluorescence |  |  |  |  | did not affect root elongation |  |  | about 5 | no calluses were observed | no apparent effect | considerably higher |  |  |  |  |
| O=C(O)COc1ccc(Cl)cc1 [Compound 4-CPA, 4-chloro-phenoxyacetic acid, reference compound] | induced a similar rooting rate only at the lowest tested concentration of 2 μM | 0.8±0.4 | promoted fluorescence most strongly | loss of auxin activity at the root tip, and swelling of the root elongation zone |  | significantly more adventitious root formation | inhibited lateral root formation more efficiently than application to roots |  |  | considerably less effective |  |  |  |  | appeared swollen, but no AR developed | about 2 fold | 50 | 100 |
